# Assay results published in publication PMC4045134, “Discovery of Triterpenoids as Reversible Inhibitors of α/β-hydrolase Domain Containing 12 (ABHD12)” (PLoS ONE, 2014).
# Columns and labels:
# Assay type in all cases: biochemical
# CB1R [1] = biological target: T1, CB1R (Rattus norvegicus, UniProt P20272); assay: [35S]GTPγS binding, CB1R agonist activity, rat cerebellar membranes; settings: for CB1R agonist activity [35S]GTPγS binding % Basal (Mean (range), n=2): 10 µM
# T1 construct: membranes prepared from brain tissue of 4-week-old male rodents were used; from tissue; host or cells: rat cerebellar membranes
# Experimental: (§1) The CB1 and CB2 receptor activity of the selected compounds (10 µM) were measured using the GTPγS binding assay according to the previously described methods, [33].
# (§2) For ABPP experiments (Figure 6C) and cannabinoid receptor activity assays (Table S2), membranes prepared from brain tissue of 4-week-old male rodents were used. The animals were obtained from the National Laboratory Animal Centre, University of Eastern Finland. Approval for the harvesting of animal tissue was obtained from the local welfare officer of the University of Eastern Finland.
# hFAAH = biological target: T2, hFAAH (Homo sapiens, UniProt O00519); assay: FAAH activity, membranes of hFAAH overexpressing COS-7 cells, 3H-anandamide; settings: read-out: hFAAH Remaining activity % control (mean (range)), n=2
# T2 construct: expressed in transfected cells; host or cells: COS-7
# T2 sequence (O00519 1-579): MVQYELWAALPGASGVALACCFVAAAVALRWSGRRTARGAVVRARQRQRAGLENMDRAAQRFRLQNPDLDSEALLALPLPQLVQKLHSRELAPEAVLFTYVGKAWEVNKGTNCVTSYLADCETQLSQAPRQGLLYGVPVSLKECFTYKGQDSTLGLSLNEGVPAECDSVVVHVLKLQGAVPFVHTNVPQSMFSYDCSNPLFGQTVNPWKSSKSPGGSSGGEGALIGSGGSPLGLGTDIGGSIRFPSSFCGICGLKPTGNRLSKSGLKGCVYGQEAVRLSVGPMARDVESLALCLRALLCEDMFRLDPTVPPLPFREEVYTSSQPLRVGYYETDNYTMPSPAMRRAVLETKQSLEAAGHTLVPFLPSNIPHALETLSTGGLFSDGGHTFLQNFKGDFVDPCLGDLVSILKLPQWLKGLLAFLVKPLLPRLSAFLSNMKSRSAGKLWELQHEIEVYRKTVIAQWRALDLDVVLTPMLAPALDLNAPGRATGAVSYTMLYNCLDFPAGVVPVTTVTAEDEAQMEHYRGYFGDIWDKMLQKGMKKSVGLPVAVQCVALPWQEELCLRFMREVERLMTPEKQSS
# Experimental: (§3) Glycerol liberated from 1-AG hydrolysis was determined with a sensitive fluorescent assay using lysates of HEK293 cells with transient overexpression of hABHD12, hABHD6 or hMAGL, essentially as previously described. […] Fluorescence (λex 530; λem 590 nm) was monitored using a Tecan Infinite M200 plate reader (Tecan Group Ltd., Männedorf, Switzerland). Inhibitory activities of selected compounds towards FAAH were determined using membranes of hFAAH overexpressing COS-7 cells, essentially as previously described. The final incubation volume (100 µL) contained 1 µg of protein and the substrate concentration was 20 µM (10 nM of ^3H-anandamide having specific activity of 60 Ci/mmol and concentration of 1 mCi/mL).
# hABHD12 [2] = biological target: T3, hABHD12 (Homo sapiens, UniProt Q8N2K0); assay: LC-MS assay of ABHD12 activity (1-AG utilization / AA formation) in hABHD12-HEK293 lysates; settings: n = 2, dose-response by LC-MS; for IC50: s.d.
# T3 construct: expressed in transfected cells; host or cells: HEK293 (transient)
# T3 sequence (Q8N2K0 1-398): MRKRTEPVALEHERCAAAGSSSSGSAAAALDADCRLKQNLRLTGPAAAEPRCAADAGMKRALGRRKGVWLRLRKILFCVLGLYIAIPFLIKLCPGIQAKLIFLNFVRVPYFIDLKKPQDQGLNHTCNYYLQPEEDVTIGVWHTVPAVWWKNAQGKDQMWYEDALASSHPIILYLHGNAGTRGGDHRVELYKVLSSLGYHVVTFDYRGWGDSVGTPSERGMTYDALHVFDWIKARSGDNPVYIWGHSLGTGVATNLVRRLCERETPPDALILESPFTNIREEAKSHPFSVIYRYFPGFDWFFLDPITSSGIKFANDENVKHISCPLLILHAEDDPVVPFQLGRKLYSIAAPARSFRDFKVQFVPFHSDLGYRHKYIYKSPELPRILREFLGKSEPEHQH
# Experimental: The fluorescent glycerol assay was mimicked otherwise but instead of assaying glycerol, utilization of 1-AG and concomitant formation of AA was monitored by LC-MS analysis. […] Enzymatic reaction was stopped by adding 400 µL of cold 11 mM H3PO4 in acetonitrile. 150 µL aliquots were filtered using Captiva 96-well filter plate (0.2 µm, Agilent Technologies, USA) into the Captiva 96-well collection plate (Agilent Technologies, USA) containing 50 µL of 0.1% formic acid in H2O. The collection plate was centrifuged at 4°C for 10 minutes and the samples were analyzed by LC-MS. HPLC system consisted of an Agilent 1200 Series Rapid Resolution LC System (Agilent Technologies, Waldbronn, Germany) with a solvent micro vacuum degasser, a binary pump, a thermostatted column compartment, and an autosampler. The mass analysis was made with an Agilent 6410 Triple Quadrupole MS equipped with an electrospray ionization (ESI) source (Agilent Technologies, Palo Alto, CA, USA). Five microliters of the sample solution were injected onto a reversed-phase HPLC column (Zorbax Eclipse XDB-C18 Rapid Resolution HT 2.1 mm×50 mm, 1.8 µm) (Agilent Technologies, Palo Alto, CA, USA) using an isocratic mobile phase consisting of 0.1% formic acid in a solution of H2O and methanol (20∶80 v/v) delivered at 0.5 mL/min. Column temperature was maintained at 50°C and the autosampler tray temperature was set at 4°C. The following ionization conditions were used for 1-AG: positive ESI mode, drying gas (nitrogen) temperature 300°C, drying gas flow rate 8 L/min, nebulizer pressure 40 psi, and capillary voltage 4000 V. The following ionization conditions were used for AA: negative ESI mode, drying gas (nitrogen) temperature 300°C, drying gas flow rate 8 L/min, nebulizer pressure 40 psi, and capillary voltage 4000 V. Analyte detection was performed using multiple reaction monitoring (MRM) with the following transitions: m/z 379 → 287 for 1-AG and m/z 303 → 303 for AA. Fragmentor voltage and collision energy for 1-AG and AA were 130 V/8 V and 175 V/2 V, respectively. […] In addition, the 2-AG positional isomer is chromatographically separated from 1-AG with retention time 2.1 min, and the peak areas of 1-AG and 2-AG were subsequently combined for all quantitative analyses reported and are thus collectively termed “1-AG”. The calibration range of 0.1–2,000 ng/mL and 0.1–1,000 ng/mL was prepared for monitored 1-AG and AA, respectively. The lower limit of quantification (LLOQ) for both analytes, 1-AG and AA, was 1.0 ng/mL.
# hMAGL = biological target: T4, hMAGL (Homo sapiens, UniProt Q99685); assay: Fluorescent glycerol assay in hMAGL-HEK293 lysates; settings: for remaining activity at 10 µM: read-out: hMAGL Remaining activity % control ± s.e.m (n=3)
# T4 construct: expressed in transfected cells; host or cells: HEK293 (transient)
# T4 sequence (Q99685 1-303): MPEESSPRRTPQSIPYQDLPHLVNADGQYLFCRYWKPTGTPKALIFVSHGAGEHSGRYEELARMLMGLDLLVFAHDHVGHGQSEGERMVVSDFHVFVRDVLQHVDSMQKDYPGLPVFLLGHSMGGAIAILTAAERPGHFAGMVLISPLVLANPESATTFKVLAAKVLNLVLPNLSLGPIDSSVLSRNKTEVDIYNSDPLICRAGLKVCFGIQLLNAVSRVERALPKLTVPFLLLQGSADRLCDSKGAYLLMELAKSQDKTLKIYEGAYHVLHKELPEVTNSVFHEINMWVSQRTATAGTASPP
# Experimental: as §3
# CB1R [3] = biological target: T1, CB1R; assay: [35S]GTPγS binding, CB1R antagonist activity, rat cerebellar membranes; settings: 10 µM
# Experimental: as §1, §2
# hABHD6 = biological target: T5, hABHD6 (Homo sapiens, UniProt Q9BV23); assay: Fluorescent glycerol assay in hABHD6-HEK293 lysates; settings: for remaining activity at 10 µM: NI = no inhibition at 10 µM, read-out: hABHD6 Remaining activity % control ± s.e.m (n=3)
# T5 construct: expressed in transfected cells; host or cells: HEK293 (transient)
# T5 sequence (Q9BV23 1-337): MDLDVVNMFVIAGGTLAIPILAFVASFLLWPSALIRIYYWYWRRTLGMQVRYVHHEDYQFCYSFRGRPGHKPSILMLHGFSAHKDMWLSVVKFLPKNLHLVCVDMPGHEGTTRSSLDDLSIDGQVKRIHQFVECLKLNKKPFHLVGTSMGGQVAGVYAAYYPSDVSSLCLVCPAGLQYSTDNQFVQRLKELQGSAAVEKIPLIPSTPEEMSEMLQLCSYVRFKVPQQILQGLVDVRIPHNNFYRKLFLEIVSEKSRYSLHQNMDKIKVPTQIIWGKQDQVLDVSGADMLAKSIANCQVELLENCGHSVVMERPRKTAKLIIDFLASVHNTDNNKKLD
# Experimental: as §3
# hCB2R = biological target: T6, hCB2R (Homo sapiens, UniProt P34972); assay: [35S]GTPγS binding, CB2R agonist activity, hCB2R-CHO cell membranes
# T6 construct: expressed in transfected cells; host or cells: CHO
# hABHD12 [4] = biological target: T3, hABHD12; assay: Fluorescent glycerol assay of 1-AG hydrolysis in hABHD12-HEK293 lysates; settings: for Emax: read-out: max inhibition (converted)
# Experimental: as §3
# hABHD12 [5] = biological target: T3, hABHD12; assay: Reversibility testing, 40-fold dilution of enzyme-inhibitor complex; settings: time points 10, 20, 30, 60 and 90 min
# Experimental: Reversibility testing was carried out as previously described. Briefly, DMSO/inhibitor (0.5 µl) was incubated together with hABHD12-HEK293 lysate (4.5 µl, 0.3 µg protein/well) in TEMN-BSA buffer for 30 min. After this, a 40-fold dilution of enzyme-inhibitor complex was brought about by addition of the substrate [1-AG, 12.5 µM final concentration, containing additionally 1% EtOH (v/v)] in 195 µl of glycerol assay mix and fluorescence was kinetically monitored at 10 min intervals for 90 min at RT.
# [6] = hABHD12-HEK293 lysates, three independent experiments, read-out: -logIC50±s.e.m. (converted)
# T1 sequence (P20272 whole entry): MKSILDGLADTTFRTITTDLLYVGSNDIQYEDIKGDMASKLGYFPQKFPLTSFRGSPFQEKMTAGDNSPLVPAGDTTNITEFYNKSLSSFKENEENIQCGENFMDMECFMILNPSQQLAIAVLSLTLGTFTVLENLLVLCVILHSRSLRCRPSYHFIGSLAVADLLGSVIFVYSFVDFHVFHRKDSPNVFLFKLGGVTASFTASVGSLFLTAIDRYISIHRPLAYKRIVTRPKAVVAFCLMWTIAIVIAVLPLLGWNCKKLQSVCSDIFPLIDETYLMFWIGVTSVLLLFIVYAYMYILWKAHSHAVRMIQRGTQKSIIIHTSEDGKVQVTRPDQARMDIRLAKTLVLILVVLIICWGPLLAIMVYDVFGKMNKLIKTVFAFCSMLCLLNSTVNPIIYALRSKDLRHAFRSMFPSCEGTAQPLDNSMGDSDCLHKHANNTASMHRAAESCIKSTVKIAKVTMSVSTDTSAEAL
# T6 sequence (P34972 whole entry): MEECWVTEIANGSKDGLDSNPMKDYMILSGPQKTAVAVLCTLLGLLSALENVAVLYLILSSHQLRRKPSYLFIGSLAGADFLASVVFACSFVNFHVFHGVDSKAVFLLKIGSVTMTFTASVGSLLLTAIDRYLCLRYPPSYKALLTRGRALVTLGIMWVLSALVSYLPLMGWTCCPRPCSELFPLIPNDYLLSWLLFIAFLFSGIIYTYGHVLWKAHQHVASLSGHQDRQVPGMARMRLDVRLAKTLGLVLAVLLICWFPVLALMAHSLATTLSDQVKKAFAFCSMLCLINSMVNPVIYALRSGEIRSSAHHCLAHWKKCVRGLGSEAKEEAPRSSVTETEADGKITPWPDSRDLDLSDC
smiles,measurement,setting,value
"C=C(C)[C@@H]1CC[C@]2(C(=O)O)CC[C@]3(C)[C@H](CC[C@@H]4[C@@]5(C)CC[C@H](O)C(C)(C)[C@@H]5CC[C@]43C)[C@@H]12 [Compound 1, Betulinic acid, reference compound]","CB1R agonist activity [35S]GTPγS binding % Basal (Mean (range), n=2)",CB1R [1],91 (87-96) % Basal
same,remaining activity at 10 µM,hFAAH,83%
same,IC50,hABHD12 [2],2510 nM
same,remaining activity at 10 µM,hMAGL,76.7 ± 0.1%
same,"CB1R antagonist activity [35S]GTPγS binding % HU210-evoked response (Mean (range), n=2)",CB1R [3],99 (98-99) % HU210-evoked response
same,remaining activity at 10 µM,hABHD6,~70%
same,"CB2R agonist activity [35S]GTPγS binding % Basal (Mean (range), n=2)",hCB2R; 10 µM,132 (106-158) % Basal
"C[C@H]1[C@H](C)CC[C@]2(C(=O)O)CC[C@]3(C)C(=CC[C@@H]4[C@@]5(C)CC[C@H](O)C(C)(C)[C@@H]5CC[C@]43C)[C@H]12 [Compound 4, Ursolic acid, reference compound]",IC50,hABHD12 [2],1820 nM
same,effect on MAGL activity,hMAGL; preliminary screening,negligible effect
same,hABHD12 inhibitory activity (in words),hABHD12 [4],selectively inhibit ABHD12
same,remaining activity at 10 µM,"hABHD12 [4]; hABHD12-HEK293 lysates, 10 µM, NI = no inhibition, read-out: Remaining activity at 10 µM % ± s.e.m.",~30%
same,effect on ABHD6 activity,hABHD6; preliminary screening,negligible effect
C=C(C)[C@@H]1CC[C@]2(C(=O)O)CC[C@]3(C)[C@H](CC[C@@H]4[C@@]5(C)CCC(=O)C(C)(C)[C@@H]5CC[C@]43C)[C@@H]12 [Compound 18],max inhibition,hABHD12 [2],100%
same,IC50,hABHD12 [2],3310 nM
C=C(C)[C@@H]1CC[C@]2(C=NO)CC[C@]3(C)[C@H](CC[C@@H]4[C@@]5(C)CCC(=NO)C(C)(C)[C@@H]5CC[C@]43C)[C@@H]12 [Compound 25],remaining activity at 10 µM,hFAAH,97%
same,max inhibition,hABHD12 [2],76%
same,IC50,hABHD12 [2],3980 nM
same,remaining activity at 10 µM,hMAGL,88.7 ± 4.2%
same,remaining activity at 10 µM,hABHD6,103 ± 2.3%
C=C(C)C1CCC2(C(=O)O)CCC3(C)C(CCC4C5(C)Cc6c([nH]c7ccccc67)C(C)(C)C5CCC43C)C12 (stereo not shown) [Compound 33],"CB1R agonist activity [35S]GTPγS binding % Basal (Mean (range), n=2)",CB1R [1],95 (94-96) % Basal
same,remaining activity at 10 µM,hFAAH,90%
same,time-dependency of inhibitor potency (IC50) after 40-fold dilution,hABHD12 [5],time-dependent drop of inhibitor potency
same,remaining activity at 10 µM,hMAGL,74.8 ± 4.6%
same,"CB1R antagonist activity [35S]GTPγS binding % HU210-evoked response (Mean (range), n=2)",CB1R [3],97 (96-98) % HU210-evoked response
same,IC50,hABHD12 [4]; [6],933 nM
same,IC50,"hABHD12 [4]; hABHD12-HEK293 lysates, read-out: IC50",900 nM
same,Emax,hABHD12 [4]; hABHD12-HEK293 lysates,65%
same,remaining activity at 10 µM,hABHD6,81 ± 4.3%
same,"CB2R agonist activity [35S]GTPγS binding % Basal (Mean (range), n=2)",hCB2R; 10 µM,102 (90-114) % Basal
C=C(C)[C@@H]1CC[C@]2(C(=O)O)CC[C@]3(C)[C@H](CC[C@@H]4[C@@]5(C)Cc6c([nH]c7ccc(OC)cc67)C(C)(C)[C@@H]5CC[C@]43C)[C@@H]12 [Compound 34],time-dependency of inhibitor potency (IC50) after 40-fold dilution,hABHD12 [5],time-dependent drop of inhibitor potency
same,IC50,hABHD12 [4]; [6],1620 nM
same,Emax,hABHD12 [4]; hABHD12-HEK293 lysates,100%
CCCCCCC(C)(C)c1cc(O)c2c(c1)OC(C)(C)[C@@H]1CC=C(CO)C[C@@H]21 [HU210],"CB1R agonist activity [35S]GTPγS binding % basal ± SEM, n > 3",CB1R [1]; reference compound at 1 µM,430 ± 36 % Basal
same,"CB2R agonist activity [35S]GTPγS binding % Basal (Mean (range), n=2)",hCB2R; 10 nM,354 (348-361) % Basal
